Measured values from a melting point compilation (Tetko et al.; mined from patent text by program, amines drawn as free bases though some values may be those of a salt).

Row | melting point [°C] | Compound
1 | 172 to 174 | CC(C)n1nc(-c2sc(NC(=O)c3ccc(CN(C)CCc4ccccn4)cc3)nc2-c2ccccc2)ccc1=O
2 | 55 to 56 | FC(F)c1ncnc(-c2ccc(Cl)cc2Cl)c1Cl
3 | 89 to 90 | O=C1CC2CCCC(CC(=O)OCc3ccccc3)C2N1 (configuration not stated)
4 | 175 | CC(=O)Oc1ccccc1C(=O)N1CC(O)C[C@H]1C(=O)O (some centres not stated)
5 | 225 to 227 | Oc1ccc2c(c1)COc1c-2cc2ccc(O)cc2c1-c1ccccc1
6 | 128 to 130 | CC(C)(C)Nc1cc(Cl)nc(NC(C)(C)C)n1
7 | 200 to 202 | COCCN(C)Cc1c(-c2ccc(N)cc2)sc2c1c(=O)n(-c1ccc3c(c1)OCO3)c(=O)n2Cc1c(F)cccc1F
8 | 150 to 154 | C#Cc1cccc(NC(=O)CCCC(=O)O)c1
9 | 148 to 149 | CCc1ccc(C(=O)COc2ccc(CC3SC(=O)NC3=O)cc2)nc1 (configuration not stated)
10 | 115 to 117 | C[C@@H](N)C(=O)N(O)C(=O)OC(C)(C)C
11 | 149 to 151 | COc1cc2c(cc1Nc1ncc(Cl)c(N[C@H]3[C@@H](C(N)=O)[C@@H]4C=C[C@H]3C4)n1)NCCN(CC1CC1)C2
12 | > 240 | CC(C)(C)c1cc(-c2ccc(C(=O)O)cc2)cc(C(C)(C)C)c1O
13 | 82 to 83 | O=C(CCc1ccccc1)c1cccnc1Oc1ccc(F)cc1
14 | 117 to 118 | CCc1nn(CO)c(CC)c1Cc1cc(Cl)cc(Cl)c1
15 | 180 to 182 | CCOC(=O)/C=C/c1oc2cccc(O)c2c1C
16 | 111 to 112 | O=c1c(O)c(CCCCCO)oc2ccccc12
17 | 116 | CN(C)C(=O)COc1ccc2c(-c3ccccc3F)noc2c1Cl
18 | 160 to 165 | CC(CN(C)C)On1c(=O)nc(-c2ccc3c(c2)OCO3)c2cc3c(cc21)OCO3 (configuration not stated)
19 | 214 to 218 | O=C(O)Cc1c(C(=O)c2ccccc2)[nH]c2cc(Cl)cc(Cl)c12
20 | 135 to 137 | COc1ccc(NN=C(Sc2ccc(F)cc2)C(C)=O)cc1
21 | 151 to 152 | COC(=O)c1cccc(I)c1C(=O)NC(C)(C)CS(C)=O (configuration not stated)
22 | 66 to 67 | CCCCCCCCCCCCOc1ccc(C(C)=O)o1
23 | 98.5 to 100 | CCCN(CCC)c1c(CC)nn2c(-c3cnc(N(C)C)cc3C)cccc12

Row | melting point [°C] | Compound
24 | 200 to 202 | Cc1cccc(C)c1NC(=O)N(Cc1ccccc1)CC1(c2ccccc2)CCCC1
25 | 166 to 168 | CN1CC(CCCl)Oc2cc3ccccc3cc2C1=S (configuration not stated)
26 | 68 to 69 | COc1cccc(NC(=O)[C@H](CC(=O)OC(C)(C)C)NC(=O)OCc2ccccc2)c1
27 | 200 | Cc1c(C(F)(C(F)(F)F)C(F)(F)F)c(-c2ccc(S(N)(=O)=O)cc2)c2n1CCC2
28 | 163 to 165 | O=C(NCCc1ccccc1)c1ccc(N2CCOCC2)nc1
29 | 98 | O=C(CCC(=O)N(CCO)CCO)c1ccccc1
30 | 123 | CN(Cc1ccc(N)cc1)C1CCN(c2ccc(N)cc2)CC1
31 | 79 to 83 | COc1ccccc1N1CCN(CCCNC(=O)c2cccc3c2OC(C2CCCCC2)CC3)CC1 (configuration not stated)
32 | 214 | O=C(Nc1ccc2oc3c(c2c1)CCCC3)c1ccc(Cl)cc1
33 | 192 to 194 | N#Cc1cnn2c1NCCC2c1cccc(C(F)(F)F)c1 (configuration not stated)
34 | 257 to 259 | O=C(O)/C=C/c1ccc(-c2ccc(O)c(C34CC5CC(CC(C5)C3)C4)c2)c(Cl)c1
35 | 74 | CNC(=O)[C@@H]1CCCCN1S(=O)(=O)c1ccc(Cl)c(COc2cccc3c(-n4ccnc4)cc(C)nc23)c1Cl
36 | > 250 | CONC(=O)COc1cc2c(cc1C#Cc1ccccc1)NC(=O)CC(c1cccc(C#N)c1)=N2
37 | 221 | CCC(C(O)c1ccc(Cl)cc1)n1ncn(-c2ccc(N3CCN(c4nc5ccccc5o4)CC3)cc2)c1=O (configuration not stated)
38 | 84 to 85 | O=C(O)CCCC/C=C(/c1cccnc1)c1cccs1
39 | 80 to 81 | COC(=O)Cc1ccc2c(c1)C(=O)c1sccc1CO2
40 | 92 to 93 | CCCCc1n[nH]c(C(F)(F)CCC)n1
41 | 67 to 68 | COc1c(Cl)cc(Br)cc1Cl
42 | 147 | Nc1cc(C(=O)NC2CCC2)n[nH]1
43 | 205 to 206 | COc1ccc(-c2cc(=O)[nH]nc2-c2ccc(OC)c(F)c2)cc1F
44 | 169 to 171 | Cc1[nH]c2ccc(F)cc2c1C(=O)Nc1ccc(OCC(C)(C)C)c(C#N)c1
45 | 81 to 82 | ON=C(Cc1ccccc1)c1ccc(Cl)c(Cl)c1
46 | 135 to 137 | C[C@@H]1Cc2cc(Cl)ccc2O[C@H]1c1ccc(Cl)cc1 (relative stereo)

Row | melting point [°C] | Compound
47 | 96 to 97 | CCOC(=O)Oc1ccc(S(=O)(=O)N2c3cc(F)ccc3-n3cccc3C2CC)cc1 (configuration not stated)
48 | 234 to 235 | CC(=O)Nc1n[nH]c(C(C)(C)C)c1Br
49 | 108 to 109 | CC(=O)OCOC(c1ccccc1)n1cc(F)c(=O)[nH]c1=O (configuration not stated)
50 | 131 to 132 | C[C@@H](NC(=O)[C@@H](NCc1nccn1C)C(C)(C)C)C(C)(C)C
51 | 163 to 164 | CC(=O)NC(=N)NCCSCc1[nH]cnc1C
52 | 237 to 243 | CN1CC(=O)Nc2ccc(-c3cccc([N+](=O)[O-])c3)cc21
53 | 107 to 109 | O=C(O)C(=O)c1ccc(OCCOC23CC4CC(CC(C4)C2)C3)cc1
54 | 202 | CCC(CC)c1ccc(N(Cc2ccc(-c3csc(COc4cncc(C(=O)O)c4)n3)cc2)C(C)C)cc1
55 | 145 to 148 | CC(C)(C)C(O)C(=CC1CCCCC1)n1cncn1 (configuration not stated)
56 | 110 to 115 | Nc1cscc1NC(=S)Nc1c(Cl)csc1Cl
57 | 205 | CC1=C(C(=O)OC(C)C)C(c2cccc3ccc(-c4ccccc4)nc23)C([N+](=O)[O-])=C(C)N1 (configuration not stated)
58 | 151 to 153 | CC(C)NC(=S)NS(=O)(=O)c1ccc(S(C)(=O)=O)cc1N
59 | 133 to 134 | O=C(CCN1C(=O)c2ccccc2C1=O)c1ccccc1C(=O)c1ccc(Cl)cc1Cl
60 | 160 to 165 | COc1cc2c(cc1OC)CN(CC(O)c1ccc(NC(=O)c3cccc4c(=O)c5cccc(OC)c5[nH]c34)cc1)CC2 (configuration not stated)
61 | 108 to 111 | CS(=O)(=O)OCc1cc(-c2ccc3c(c2)CCO3)nn(CC2CC2)c1=O
62 | 101 to 102 | CCCCCCCCCC(=O)Nc1ccc(S(=O)(=O)Nc2nnc(C(=O)OCC)s2)cc1
63 | 107 to 110 | COc1ccc2c(c1)C(=O)N(C)C(C(Cl)(Cl)Cl)O2 (configuration not stated)
64 | 93 to 94 | Cc1cc(OCC(=O)NCCO[N+](=O)[O-])no1
65 | 173 to 175 | c1ccc(C(CC2=NCCN2)c2ccccc2)cc1
66 | 103 | CCOC(=O)c1ccc(O[Si](C)(C)C(C)(C)C)c(OC)c1
67 | 190 to 192 | CCOC(=O)N1N=C(c2ccc(N)cc2)c2cc(Cl)c(Cl)cc2CC1C (configuration not stated)
68 | 156 to 158 | Cc1cccc(N2CCN(Cc3c[nH]c4ncccc34)CC2)c1

Row | Compound | melting point [°C]
69 | CN1CC(CN2CC(=O)NC2=O)CC2c3cccc4c3c(cn4C)CC21 (configuration not stated) | 292 to 294
70 | C=CCn1cc(C(=O)O)c(=O)c2cc(F)c(N3CCNCC3)cc21 | 136
71 | COC(=O)[C@@]12CN(Cc3ccccc3)C[C@@H]1[C@@](O)(c1ccc(OC)cc1)CC[C@H]2c1ccccc1 (racemic) | 136
72 | Cc1cc(NC(=O)C(C)(O)COc2ccc(CCCl)c(F)c2)ccc1[N+](=O)[O-] (configuration not stated) | 77 to 79
